Data reported in patent publication US9040524B2, “Antifungal 5,6-dihydro-4H-pyrrolo[1,2-a][1,4]-benzodiazepines and 6H-pyrrolo[1,2-a][1,4]benzodiazepines substituted with bicycle benzene derivatives” (JANSSEN PHARMACEUTICA NV, priority 2010, dated 2015).

Tests used:
Format in all cases: cell-based
Candida parapsilosis = test: Antifungal activity in vitro, resazurin growth inhibition screen: Candida parapsilosis; settings: Candida parapsilosis B66126
Experimental: (§1) The standard susceptibility screen was performed in 96-well plates (U-bottom, Greiner Bio-One). Serial dilutions (2-fold or 4-fold) of 20 mM compound stock solutions were made in 100% DMSO, followed by an intermediate dilution step in water. These serial dilutions (10 μl) were then spotted onto test-plates that could be stored in the dark at 4° C. for a maximum period of 2 weeks. An adequate broad dose-range was included with 64 μM as the highest in-test concentration. […] The different fungal species/isolates (Table 3a) were cryopreserved and 1/1000 diluted in medium just prior to use. A standard inoculum of 200 μl containing 10^3 colony-forming unit (cfu) was then added to each well. A positive control (100% growth=fungal culture without antifungal) and a negative control (0% growth=RPMI-MOPS medium) were included on each plate.

Sporothrix schenkii = test: Antifungal activity in vitro, resazurin growth inhibition screen: Sporothrix schenkii; settings: Sporothrix schenkii B62482
Experimental: as §1

Cryptococcus neoformans = test: Antifungal activity in vitro, resazurin growth inhibition screen: Cryptococcus neoformans; settings: Cryptococcus neoformans B66663
Experimental: as §1

Microsporum canis = test: Antifungal activity in vitro, resazurin growth inhibition screen: Microsporum canis; settings: Microsporum canis B68128
Experimental: as §1

Trichophyton rubrum = test: Antifungal activity in vitro, resazurin growth inhibition screen: Trichophyton rubrum; settings: Trichophyton rubrum B68183
Experimental: as §1

Aspergillus fumigatus = test: Antifungal activity in vitro, resazurin growth inhibition screen: Aspergillus fumigatus; settings: Aspergillus fumigatus B42928
Experimental: as §1

[1] = tested on: Trichophyton mentagrophytes; test: Antifungal activity in vitro, resazurin growth inhibition screen: Trichophyton mentagrophytes; settings: Trichophyton mentagrophytes B70554
Experimental: as §1

Row | Structure (SMILES) | Inf. D pIC50 (Candida parapsilosis) | Inf. A pIC50 (Sporothrix schenkii) | Inf. F pIC50 (Cryptococcus neoformans) | Inf. B pIC50 (Microsporum canis) | Inf. C pIC50 (Trichophyton rubrum) | Inf. E pIC50 (Aspergillus fumigatus) | Inf. G pIC50 [1]
1 | Br.c1ccc2c(c1)CNC(c1ccc3c(c1)OCO3)c1cccn1-2 (stereo not drawn) [Compound 2, 4-(1,3-benzodioxol-5-yl)-5,6-dihydro-4H-pyrrolo[1,2-a][1,4]benzodiazepine .HBr] | <4.19 | <4.19 | <4.19 | 4.42 | 4.96 | <4.19 | –
2 | Clc1cccc2c1CNC(c1ccc3c(c1)OCO3)c1cccn1-2 (stereo not drawn) [Compound 3, 4-(1,3-benzodioxol-5-yl)-7-chloro-5,6-dihydro-4H-pyrrolo[1,2-a][1,4]benzo-diazepine] | <4.19 | <4.19 | 4.30 | 4.91 | 4.47 | <4.19 | 4.71
3 | Br.Clc1cccc2c1CNC(c1ccc3c(c1)OCO3)c1cccn1-2 (stereo not drawn) [Compound 4, 4-(1,3-benzodioxol-5-yl)-7-chloro-5,6-dihydro-4H-pyrrolo[1,2-a][1,4]benzo-diazepine .HBr] | <4.19 | <4.19 | 4.38 | 5.09 | 5.70 | <4.19 | –
4 | Br.Clc1ccc2c(c1)CNC(c1ccc3c(c1)OCO3)c1cccn1-2 (stereo not drawn) [Compound 5, 4-(1,3-benzodioxol-5-yl)-8-chloro-5,6-dihydro-4H-pyrrolo[1,2-a][1,4]benzo-diazepine .HBr] | <4.19 | <4.19 | 4.42 | 5.11 | 5.05 | <4.19 | –
5 | Br.Clc1ccc2c(c1)-n1cccc1C(c1ccc3c(c1)OCO3)NC2 (stereo not drawn) [Compound 6, 4-(1,3-benzodioxol-5-yl)-9-chloro-5,6-dihydro-4H-pyrrolo[1,2-a][1,4]benzo-diazepine .HBr] | <4.19 | 4.21 | 5.10 | 5.00 | 5.15 | <4.19 | 4.50
6 | Br.Clc1cccc2c1-n1cccc1C(c1ccc3c(c1)OCO3)NC2 (stereo not drawn) [Compound 7, 4-(1,3-benzodioxol-5-yl)-10-chloro-5,6-dihydro-4H-pyrrolo[1,2-a][1,4]benzo-diazepine .HBr] | <4.19 | <4.19 | 4.64 | 5.30 | 5.40 | <4.19 | 4.47
7 | Br.COc1cccc2c1CNC(c1ccc3c(c1)OCO3)c1cccn1-2 (stereo not drawn) [Compound 8, 4-(1,3-benzodioxol-5-yl)-5,6-dihydro-7-methoxy-4H-pyrrolo[1,2-a][1,4]benzo-diazepine .HBr] | <4.19 | <4.19 | <4.19 | 4.66 | 5.22 | <4.19 | <4.19
8 | Clc1cccc2c1CN=C(c1ccc3c(c1)OCO3)c1cccn1-2 [Compound 10, 4-(1,3-benzodioxol-5-yl)-7-chloro-6H-pyrrolo[1,2-a][1,4]benzo-diazepine] | <4.19 | <4.19 | 4.48 | 5.00 | 5.70 | <4.19 | 5.30
9 | Br.CCOc1cc2c(cc1C1NCc3c(Cl)cccc3-n3cccc31)CCC2 (stereo not drawn) [Compound 14, 7-chloro-4-(6-ethoxy-2,3-dihydro-1H-inden-5-yl)-5,6-dihydro-4H-pyrrolo[1,2-a]-[1,4]benzodiazepine .HBr] | <4.19 | <4.19 | 4.82 | 5.10 | 5.52 | <4.19 | –
10 | Br.COc1cc2c(cc1C1NCc3c(Cl)cccc3-n3cccc31)CCCC2 (stereo not drawn) [Compound 15, 7-chloro-5,6-dihydro-4-(5,6,7,8-tetrahydro-3-methoxy-2-naphthalenyl)-4H-pyrrolo-[1,2-a][1,4]benzodiazepine .HBr] | <4.19 | <4.19 | <4.19 | <4.19 | 5.40 | <4.19 | <4.19
11 | Cl.Clc1ccc(Cl)c2c1CNC(c1ccc3c(c1)CCC3)c1cccn1-2 (stereo not drawn) [Compound 16, 7,10-dichloro-4-(2,3-dihydro-1H-inden-5-yl)-5,6-dihydro-4H-pyrrolo[1,2-a][1,4]-benzodiazepine .HCl] | <4.19 | <4.19 | <4.19 | 5.00 | 5.40 | <4.19 | 4.52
12 | Cl.Clc1cc(Cl)c2c(c1)CNC(c1ccc3c(c1)CCC3)c1cccn1-2 (stereo not drawn) [Compound 17, 8,10-dichloro-4-(2,3-dihydro-1H-inden-5-yl)-5,6-dihydro-4H-pyrrolo[1,2-a][1,4]-benzodiazepine .HCl] | <4.19 | <4.19 | <4.19 | <4.19 | 5.70 | 5.46 | 4.71
13 | Cl.Clc1ccc2c(c1Cl)CNC(c1ccc3c(c1)CCC3)c1cccn1-2 (stereo not drawn) [Compound 18, 7,8-dichloro-4-(2,3-dihydro-1H-inden-5-yl)-5,6-dihydro-4H-pyrrolo[1,2-a][1,4]-benzodiazepine .HCl] | <4.19 | <4.19 | <4.19 | 4.62 | 5.70 | 4.67 | 5.26
14 | Br.COc1cc2c(cc1C1NCc3c(Cl)cccc3-n3cccc31)OC(C)C2 (stereo not drawn) [Compound 49, 7-chloro-4-(2,3-dihydro-5-methoxy-2-methyl-6-benzofuranyl)-5,6-dihydro-4H-pyrrolo[1,2-a][1,4]benzodiazepine .HBr] | <4.19 | <4.19 | 4.34 | 5.05 | 5.10 | <4.19 | –
